In US8044057B2, “Methods for suppressing an immune response or treating a proliferative disorder” (The United States of America as represented by the …, priority 2003, dated 2011):

Columns and labels:
Format in all cases: cell-based, human
[1] = test system: PASM cells; experiment: BrDU incorporation (in situ ELISA) in PASM cells
Experimental: PASM cells (4,000 per well) were grown in 96-well plates for 24 hours before incubation for 24 hours in medium with (FIG. 4C) or without 10% FBS (FIG. 4D). Cells were then incubated in fresh medium containing 10% FBS, 10 μM BrDU, and 0-100 μM LY303511 without or with rapamycin, 200 or 400 ng/ml, for 24 hours BrDU incorporation was measured by in situ ELISA as per the manufacturer's instructions (BrDU detection kit, Roche). For each experiment, BrDU content of cells incubated with inhibitors was expressed relative to that in cells incubated with 0.1% DMSO control (% control). Mean control (=100%) absorbance for each experiment using cells from different donors was 0.22±0.06 and 0.24±0.06 for FIG. 4C and FIG. 4D, respectively (=100%). Data are means of BrDU values ±SEM from 3 experiments with assays in sextuplet. *p<0.05 vs. DMSO control, or †p<0.05 vs. 10 μM LY303511, by Student's t-test.
Measurement of cell proliferation:. Cell proliferation, or DNA synthesis, was estimated using an in situ 5-bromo-2-deoxy-uridine (BrDU) detection kit as per the manufacturer's instructions (Roche Diagnostics; Nutley, N.J.). […] Cells were fixed, and BrDU was detected using a peroxidase-conjugated anti-BrDU antibody. The measured absorbance data in cells treated with inhibitors were normalized to those treated with DMSO control (% control).

[2] = test system: A549 cells; experiment: KI-67 immunostaining in A549 cells; details: 24 hours
Source text: Slides were mounted in solution containing DAPI to stain nuclei. Photos were captured using equal laser intensity and gain.

[3] = test system: P70 S6 kinase; experiment: Western blot of phospho-p70 S6 kinase T389 in A549 cells
Experimental: (§1) A549 cells were treated without or with 100 mcM LY303511, 200 ng/ml rapamycin, or 50 nM wortmannin in serum free media for 1 hour before addition of E. coli lipopolysaccharide (LPS), […] and interferon (IFN)-γ, 100 U/ml (LPS/IFN-γ or “L/I”). Cells were homogenized and the indicated proteins (see Table 1) were detected by Western blot. Western blots are from the same experiment, and representative of three experiments.
In another experiment, A549 cells were grown to sub-confluence in serum-containing media, and incubated with a vehicle, 100 mcM LY303511, or rapamycin, 200 ng/ml for 0, 12, or 24 hours. Cells were lysed, and proteins separated by SDS-PAGE before transfer to nitrocellulose membranes. Membranes were incubated with antibodies against p27Kip1, p21 Cip1 orphospho-P70 S6 kinase T389.
Measurement of protein phosphorylation: A549 cells were incubated in serum-free medium without or with inhibitors for 1 hour, as indicated, before incubation for 30 minutes with a mixture of LPS, 100 μg/ml (Sigma; St. Louis, Mo.) and IFN-γ, 100 U/ml (Roche; Nutley, N.J.). PASM cells were incubated in serum-free medium without or with inhibitors for 24 h as indicated, before incubation for 30 min with 10% FBS. A549 or PASM cells were washed once with cold PBS and incubated for 15 minutes on ice ih lysis buffer (20 mM Tris pH 8.0, 1% Nonidet P-40, 1 mM EDTA, 5 mM benzamidine, aprotinin, 10 μg/ml, leupeptin, 10 μg/ml, trypsin soybean inhibitor, 1 mM PMSF, 50 mM sodium fluoride, 100 μM sodium orthovanadate, and 1: 100 Sigma phosphatase inhibitor set I containing cantharidin, microcystin LR and bromotetramizole). After freezing and thawing, lysates were centrifuged for 30 min at 16,000×g before protein measurement and storage at −80° C. Equal amounts of total protein were separated by SDS-PAGE, and transferred to a nitrocellulose membrane, before immunoblotting with primary antibodies as indicated. Membranes were treated with anti-rabbit IgG or anti-mouse IgG antibodies (Promega; Madison, Wis.) linked to horseradish peroxidase, developed using an enhanced chemiluminescence detection kit (SuperSignal West Pico, Pierce; Rockford, Ill.), and exposed to X-ray film, which was scanned using an Epson Expression 636 scanner. Integrated band densities were quantified using Scion Image beta 3b software.

[4] = test system: AKT; experiment: Western blot of phospho-Akt S473 in PASM cells
Experimental: FIGS. 4A-4D are bar graphs and digital images showing that LY303511 inhibits serum-stimulated phosphorylation of S6K and Akt (FIGS. 4A and 4B), as well as proliferation in PASM cells (FIGS. 4C and 4D). After incubation in serum-free medium for 24 hours, PASM cells were incubated without or with 100 μM LY303511, rapamycin, 200 ng/ml, or 200 nM wortmannin (FIG. 4A), or 0-100 μM LY303511 (FIG. 4B), for 1 hour before the addition of 10% FBS for 30 min and preparation of cell lysates. Equal amounts of protein (20 μg/gel) were separated by SDS-PAGE and transferred to nitrocellulose membranes before immunodetection of phospho-p70 S6 kinase T389 (pS6K) orphospho-Akt S473 (pAkt) by Western blot. Data are from one experiment representative of five.
HPASM cells were purchased from Clonetics and passaged according to the manufacturer's instructions. Cells were plated in 100 mm dishes, and allowed to grow to near confluence before serum starvation for 24 hours. […] Cells were homogenized and the indicated proteins were detected by Western blot.
Measurement of protein phosphorylation: A549 cells were incubated in serum-free medium without or with inhibitors for 1 hour, as indicated, before incubation for 30 minutes with a mixture of LPS, 100 μg/ml (Sigma; St. Louis, Mo.) and IFN-γ, 100 U/ml (Roche; Nutley, N.J.). […] Integrated band densities were quantified using Scion Image beta 3b software.

[5] = test system: AKT; experiment: Western blot of phospho-Akt S473 in A549 cells
Experimental: as §1
Measurement of protein phosphorylation: A549 cells were incubated in serum-free medium without or with inhibitors for 1 hour, as indicated, before incubation for 30 minutes with a mixture of LPS, 100 μg/ml (Sigma; St. Louis, Mo.) and IFN-γ, 100 U/ml (Roche; Nutley, N.J.). PASM cells were incubated in serum-free medium without or with inhibitors for 24 h as indicated, before incubation for 30 min with 10% FBS. A549 or PASM cells were washed once with cold PBS and incubated for 15 minutes on ice ih lysis buffer (20 mM Tris pH 8.0, 1% Nonidet P-40, 1 mM EDTA, 5 mM benzamidine, aprotinin, 10 μg/ml, leupeptin, 10 μg/ml, trypsin soybean inhibitor, 1 mM PMSF, 50 mM sodium fluoride, 100 μM sodium orthovanadate, and 1: 100 Sigma phosphatase inhibitor set I containing cantharidin, microcystin LR and bromotetramizole). […] Integrated band densities were quantified using Scion Image beta 3b software.

Q: For O=c1cc(N2CCNCC2)oc2c(-c3ccccc3)cccc12 [LY303511, 2-(4-piperazinyl)-8-phenyl-4H-1-benzopyran-4-one], which “proliferation (BrDu incorporation)” value ([1]; PASM cells in serum-free medium for 24 h before addition of FBS (FIG. 4D), compared with serum pre-incubation) is on record?
A: enhanced in the absence of serum

Q: What about the “proliferation (BrDu incorporation)” value ([1]; PASM cells incubated with serum before addition of inhibitors (FIG. 4C)) of the same compound?
A: inhibited in concentration-dependent fashion

Q: And the “whole cell KI-67 levels” value [2]?
A: significant decrease in whole cell KI-67 levels

Q: And the “phosphorylation of P70 S6 kinase at T389” value ([3]; A549 cells in serum-containing media, 100 mcM LY303511 or rapamycin 200 ng/ml, 12 and 24 hours)?
A: blocked phosphorylation of P70 S6 kinase at T389

Q: What about the “lowest concentration inhibiting LPS/IFNγ-stimulated mTOR activity and mTOR-dependent phosphorylation of S6K” value ([3]; A549 cells, LPS/IFNγ-stimulated) of the same compound?
A: 1 µM

Q: What about the “phosphorylation of P70 S6 kinase (pS6K T389)” value ([3]; A549 cells, 100 mcM LY303511, rapamycin 200 ng/ml or wortmannin for 1 hour before LPS/IFN-γ, Western blot) of the same compound?
A: blocks phosphorylation of P70 S6 kinase

Q: What about the IC50 ([3]; Homo sapiens, A549 cells, stimulated, densitometric analysis of pS6K phosphoblots, read-out: IC50 for inhibition of S6K phosphorylation) of the same compound?
A: ~10 µM

Q: What about the IC50 ([4]; Homo sapiens, pulmonary artery smooth muscle cells, densitometry, read-out: IC50 for inhibition of Akt phosphorylation) of the same compound?
A: 10 to 100 µM

Q: And the “phosphorylation of AKT” value ([4]; PASM cells, 10% FBS for 30 minutes)?
A: inhibits phosphorylation of AKT, albeit to a lesser extent than phosphorylation of p70 S6 kinase

Q: What about the “inhibition of phosphorylation of Akt” value ([5]; even at 100 mcM) of the same compound?
A: does not inhibit phosphorylation of Akt

Q: And the “phosphorylation of AKT (S473)” value ([5]; inhibitors 1 hour before LPS/IFN-γ, Western blot)?
A: increase phosphorylation of AKT
